Laboratory results published in PMC4935745, “Synthesis and stereochemical determination of an antiparasitic pseudo-aminal type monoterpene indole alkaloid” (Journal of Natural Medicines, 2016).
≈ marks a conversion by molar mass, not a printed value. Read-outs that look alike come from different tables or passages of the source.

How the values were obtained:
Format in all cases: cell-based
[1] = tested on: Plasmodium falciparum (chloroquine-resistant K1 strain); assay: In vitro antimalarial activity, K1 strain; conditions: for Selectivity index (SI) M/K: MRC-5/K1; for IC50: Plasmodium falciparum, K1, chloroquine-resistant strain
Procedure: (§1) Naturally occurring and synthetic compounds were tested for antimalarial activity against Plasmodium falciparum parasites (chloroquine-resistant K1 strain and chloroquine-susceptible FCR3 strain) and for cytotoxicity (against human MCR-5 cells), in comparison with the first-line antimalarial artemisinin.

[2] = tested on: Plasmodium falciparum (chloroquine-susceptible FCR3 strain); assay: In vitro antimalarial activity, FCR3 strain; conditions: for IC50: Plasmodium falciparum, FCR3, chloroquine-sensitive strain, in vitro; for Selectivity index (SI) M/F: MRC-5/FCR3
Procedure: as §1

[3] = Cytotoxicity against human MRC-5 cells; conditions: human
Procedure: as §1

MRC-5 cells = assay: Cytotoxicity against human MRC-5 cells; conditions: human MRC-5 cells
Procedure: as §1

[4] = MRC-5 cells, human MRC-5 cells, read-out: Cytotoxicity MRC-5 IC50

| Structure (SMILES) | Selectivity index (SI) M/K [1] | IC50 ([1]; in vitro) [µg/mL] | IC50 [2] [µg/mL] | IC50 [3, 4] [µg/mL] | Selectivity index (SI) M/F [2] | Antimalarial activity against chloroquine-resistant P. falciparum (in words) ([1]; K1 strain, in vitro) | Antimalarial activity K1 IC50 ([1]; chloroquine-resistant strain, in vitro) [µg/mL] | Cytotoxicity MRC-5 IC50 (MRC-5 cells) [µg/mL] | IC50 ([3]; Cytotoxicity MRC-5 IC50) [µg/mL] |
| --- | --- | --- | --- | --- | --- | --- | --- | --- | --- |
| C/C=C(/COc1ncccc1[N+](=O)[O-])[C@H](CCN=[N+]=[N-])[C@@](C)(O)c1cc2ccccc2[nH]1 [(−)-(15S,16R)-34] | >12.4 | 8.04 (≈ 18.4 µM) | > 12.5 | > 100 | – | – | – | – | – |
| CC=C1CN2CCC1C(C)(O)c1[nH]c3ccccc3c1C2 (racemic) [Synthetic (±)-(15S*,16S*)-1, (±)-(15S*,16S*)-16-hydroxy-16,22-dihydroapparicine] | – | > 12.5 | – | 33.3 (≈ 118 µM) | – | – | – | – | – |
| C/C=C(/CO)[C@H](CCN=[N+]=[N-])[C@@](C)(O)c1cc2ccccc2[nH]1 [(−)-(15S,16R)-33] | 2.3 | 7.58 (≈ 24.1 µM) | 7.17 (≈ 22.8 µM) | 17.8 (≈ 56.6 µM) | 2.5 | – | – | – | – |
| C/C=C1/C(=O)O[C@H](C)[C@H]1CCN=[N+]=[N-] [(−)-(15S,16R)-39] | 5.8 | 9.38 (≈ 48 µM) | > 12.5 | 54 (≈ 277 µM) | <4.3 | – | – | – | – |
| CC=C1CN2CCC1C(C)(O)c1[nH]c3ccccc3c1C2 (single isomer, unassigned; (+)) [Synthetic (+)-(15S,16R)-1] | 5.7 | – | 8.37 (≈ 29.6 µM) | – | 6.1 | moderate/weak antimalarial activity | 9.00 | 51.2 | – |
| C/C=C(/COC(=O)C(C)(C)C)[C@H](CCN=[N+]=[N-])[C@@](C)(O)c1cc2ccccc2n1CO[Si](C)(C)C(C)(C)C [(−)-(15S,16R)-32] | – | > 12.5 | > 12.5 | – | – | – | – | – | – |
| C/C=C1/CNCC[C@@H]1[C@@](C)(O)c1cc2ccccc2[nH]1 (racemic) [(±)-(15S,16R)-37] | 4.5 | 8.98 (≈ 33.2 µM) | > 12.5 | 40.8 (≈ 151 µM) | <3.3 | – | – | – | – |
| C[C@@H]1CC[C@H]2[C@@H](C)C(=O)O[C@@H]3O[C@@]4(C)CC[C@@H]1[C@]32OO4 [Artemisinin, reference compound] | 7528 | 0.006 (≈ 0.0213 µM) | 0.006 (≈ 0.0213 µM) | – | 7528 | – | – | – | 45.2 (≈ 160 µM) |
